Activity calls are given as the source filed them. The rule behind the calls is not given here.
What was measured:
[1] = target: T1, Bromodomain-containing protein 9 (Homo sapiens) (UniProt Q9H8M2); assay: Binding affinity to human BRD9 assessed as change in melting temperature at 10 uM by differential scanning fluorimetry
T1 sequence (whole entry): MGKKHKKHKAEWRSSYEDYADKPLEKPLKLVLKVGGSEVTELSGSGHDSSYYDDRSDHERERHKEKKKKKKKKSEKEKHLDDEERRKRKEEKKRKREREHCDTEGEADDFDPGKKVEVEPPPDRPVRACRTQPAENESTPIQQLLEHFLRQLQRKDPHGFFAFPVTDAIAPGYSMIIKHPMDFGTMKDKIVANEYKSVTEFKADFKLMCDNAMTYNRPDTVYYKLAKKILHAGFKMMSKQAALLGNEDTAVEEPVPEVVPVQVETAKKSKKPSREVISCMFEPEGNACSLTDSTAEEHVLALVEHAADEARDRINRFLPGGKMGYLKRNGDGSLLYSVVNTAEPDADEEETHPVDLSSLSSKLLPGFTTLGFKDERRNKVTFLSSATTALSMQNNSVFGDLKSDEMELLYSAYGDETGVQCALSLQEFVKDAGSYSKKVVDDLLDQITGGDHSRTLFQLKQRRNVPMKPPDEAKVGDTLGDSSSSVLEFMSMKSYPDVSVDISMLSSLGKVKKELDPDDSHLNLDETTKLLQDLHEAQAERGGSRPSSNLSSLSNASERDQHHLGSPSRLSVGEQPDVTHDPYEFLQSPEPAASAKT

Peregrin (Homo sapiens) = target: T2, Peregrin (Homo sapiens) (UniProt P55201); assay: Binding affinity to human BRPF1B assessed as change in melting temperature at 10 uM by differential scanning fluorimetry
T2 sequence (whole entry): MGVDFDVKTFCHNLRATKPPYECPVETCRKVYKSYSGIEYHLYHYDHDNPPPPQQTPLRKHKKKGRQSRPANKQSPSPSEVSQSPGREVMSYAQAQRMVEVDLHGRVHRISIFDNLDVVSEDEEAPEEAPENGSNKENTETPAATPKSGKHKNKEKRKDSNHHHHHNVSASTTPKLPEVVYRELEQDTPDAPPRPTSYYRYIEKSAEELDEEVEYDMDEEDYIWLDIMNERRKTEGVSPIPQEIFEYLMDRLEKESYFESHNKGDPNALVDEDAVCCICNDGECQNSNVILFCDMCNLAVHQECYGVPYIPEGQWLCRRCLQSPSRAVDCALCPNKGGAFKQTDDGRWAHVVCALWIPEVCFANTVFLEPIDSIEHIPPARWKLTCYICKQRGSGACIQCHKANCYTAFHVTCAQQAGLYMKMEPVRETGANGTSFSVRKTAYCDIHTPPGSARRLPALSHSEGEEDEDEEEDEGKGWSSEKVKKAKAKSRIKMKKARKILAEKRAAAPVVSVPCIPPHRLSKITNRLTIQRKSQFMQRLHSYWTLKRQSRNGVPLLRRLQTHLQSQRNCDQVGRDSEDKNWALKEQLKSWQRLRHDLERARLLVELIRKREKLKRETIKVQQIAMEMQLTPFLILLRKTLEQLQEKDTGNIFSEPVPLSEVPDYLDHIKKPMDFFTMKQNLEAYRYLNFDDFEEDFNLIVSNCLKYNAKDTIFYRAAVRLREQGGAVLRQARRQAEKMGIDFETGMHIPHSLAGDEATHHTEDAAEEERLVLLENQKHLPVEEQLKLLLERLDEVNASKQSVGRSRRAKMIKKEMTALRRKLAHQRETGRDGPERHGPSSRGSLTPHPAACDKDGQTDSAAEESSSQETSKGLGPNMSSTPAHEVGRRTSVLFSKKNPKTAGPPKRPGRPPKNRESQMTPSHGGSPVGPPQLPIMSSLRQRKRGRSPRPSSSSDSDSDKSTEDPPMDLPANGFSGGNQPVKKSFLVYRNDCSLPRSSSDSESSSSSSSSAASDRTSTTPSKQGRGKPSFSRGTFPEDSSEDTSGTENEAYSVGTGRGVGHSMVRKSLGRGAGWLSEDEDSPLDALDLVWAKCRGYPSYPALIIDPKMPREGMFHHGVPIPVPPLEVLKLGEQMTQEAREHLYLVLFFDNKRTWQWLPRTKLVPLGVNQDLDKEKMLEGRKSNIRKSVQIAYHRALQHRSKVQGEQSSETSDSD

[2] = target: T3, Bromodomain-containing protein 1 (Homo sapiens) (UniProt O95696); assay: Binding affinity to human BRD1 at 10 uM by differential scanning fluorimetry
T3 sequence (whole entry): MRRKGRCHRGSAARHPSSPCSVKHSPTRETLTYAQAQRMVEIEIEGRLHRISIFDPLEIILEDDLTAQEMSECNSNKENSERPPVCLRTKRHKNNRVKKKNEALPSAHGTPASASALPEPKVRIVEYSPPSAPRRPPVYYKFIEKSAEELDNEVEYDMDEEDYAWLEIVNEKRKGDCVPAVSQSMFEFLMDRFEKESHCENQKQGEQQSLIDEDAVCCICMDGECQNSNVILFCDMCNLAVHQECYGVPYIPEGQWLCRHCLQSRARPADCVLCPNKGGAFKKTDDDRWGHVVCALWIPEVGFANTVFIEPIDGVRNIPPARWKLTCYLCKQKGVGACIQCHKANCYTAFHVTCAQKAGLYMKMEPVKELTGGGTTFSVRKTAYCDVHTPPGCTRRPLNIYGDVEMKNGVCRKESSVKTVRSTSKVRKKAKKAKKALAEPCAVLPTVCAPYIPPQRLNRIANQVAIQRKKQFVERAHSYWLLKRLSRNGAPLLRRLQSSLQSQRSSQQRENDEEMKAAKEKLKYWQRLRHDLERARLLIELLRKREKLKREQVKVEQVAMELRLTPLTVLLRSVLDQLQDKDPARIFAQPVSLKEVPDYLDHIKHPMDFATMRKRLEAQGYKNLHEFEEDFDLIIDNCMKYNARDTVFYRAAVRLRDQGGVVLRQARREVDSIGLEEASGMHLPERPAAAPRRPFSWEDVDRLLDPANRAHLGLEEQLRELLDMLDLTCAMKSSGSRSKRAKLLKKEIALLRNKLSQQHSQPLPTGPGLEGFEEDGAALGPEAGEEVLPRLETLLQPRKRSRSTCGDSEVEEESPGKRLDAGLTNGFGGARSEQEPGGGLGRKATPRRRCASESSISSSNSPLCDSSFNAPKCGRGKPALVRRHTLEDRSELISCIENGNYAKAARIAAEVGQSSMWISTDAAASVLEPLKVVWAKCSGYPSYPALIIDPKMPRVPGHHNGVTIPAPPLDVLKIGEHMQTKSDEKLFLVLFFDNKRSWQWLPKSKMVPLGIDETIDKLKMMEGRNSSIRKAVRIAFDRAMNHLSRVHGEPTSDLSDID

[3] = target: Histone acetyltransferase p300 (Homo sapiens) (UniProt Q09472); assay: Binding affinity to human p300 assessed as change in melting temperature at 10 uM by differential scanning fluorimetry
Histone acetyltransferase p300 (Homo sapiens), sequence (Q09472 whole entry): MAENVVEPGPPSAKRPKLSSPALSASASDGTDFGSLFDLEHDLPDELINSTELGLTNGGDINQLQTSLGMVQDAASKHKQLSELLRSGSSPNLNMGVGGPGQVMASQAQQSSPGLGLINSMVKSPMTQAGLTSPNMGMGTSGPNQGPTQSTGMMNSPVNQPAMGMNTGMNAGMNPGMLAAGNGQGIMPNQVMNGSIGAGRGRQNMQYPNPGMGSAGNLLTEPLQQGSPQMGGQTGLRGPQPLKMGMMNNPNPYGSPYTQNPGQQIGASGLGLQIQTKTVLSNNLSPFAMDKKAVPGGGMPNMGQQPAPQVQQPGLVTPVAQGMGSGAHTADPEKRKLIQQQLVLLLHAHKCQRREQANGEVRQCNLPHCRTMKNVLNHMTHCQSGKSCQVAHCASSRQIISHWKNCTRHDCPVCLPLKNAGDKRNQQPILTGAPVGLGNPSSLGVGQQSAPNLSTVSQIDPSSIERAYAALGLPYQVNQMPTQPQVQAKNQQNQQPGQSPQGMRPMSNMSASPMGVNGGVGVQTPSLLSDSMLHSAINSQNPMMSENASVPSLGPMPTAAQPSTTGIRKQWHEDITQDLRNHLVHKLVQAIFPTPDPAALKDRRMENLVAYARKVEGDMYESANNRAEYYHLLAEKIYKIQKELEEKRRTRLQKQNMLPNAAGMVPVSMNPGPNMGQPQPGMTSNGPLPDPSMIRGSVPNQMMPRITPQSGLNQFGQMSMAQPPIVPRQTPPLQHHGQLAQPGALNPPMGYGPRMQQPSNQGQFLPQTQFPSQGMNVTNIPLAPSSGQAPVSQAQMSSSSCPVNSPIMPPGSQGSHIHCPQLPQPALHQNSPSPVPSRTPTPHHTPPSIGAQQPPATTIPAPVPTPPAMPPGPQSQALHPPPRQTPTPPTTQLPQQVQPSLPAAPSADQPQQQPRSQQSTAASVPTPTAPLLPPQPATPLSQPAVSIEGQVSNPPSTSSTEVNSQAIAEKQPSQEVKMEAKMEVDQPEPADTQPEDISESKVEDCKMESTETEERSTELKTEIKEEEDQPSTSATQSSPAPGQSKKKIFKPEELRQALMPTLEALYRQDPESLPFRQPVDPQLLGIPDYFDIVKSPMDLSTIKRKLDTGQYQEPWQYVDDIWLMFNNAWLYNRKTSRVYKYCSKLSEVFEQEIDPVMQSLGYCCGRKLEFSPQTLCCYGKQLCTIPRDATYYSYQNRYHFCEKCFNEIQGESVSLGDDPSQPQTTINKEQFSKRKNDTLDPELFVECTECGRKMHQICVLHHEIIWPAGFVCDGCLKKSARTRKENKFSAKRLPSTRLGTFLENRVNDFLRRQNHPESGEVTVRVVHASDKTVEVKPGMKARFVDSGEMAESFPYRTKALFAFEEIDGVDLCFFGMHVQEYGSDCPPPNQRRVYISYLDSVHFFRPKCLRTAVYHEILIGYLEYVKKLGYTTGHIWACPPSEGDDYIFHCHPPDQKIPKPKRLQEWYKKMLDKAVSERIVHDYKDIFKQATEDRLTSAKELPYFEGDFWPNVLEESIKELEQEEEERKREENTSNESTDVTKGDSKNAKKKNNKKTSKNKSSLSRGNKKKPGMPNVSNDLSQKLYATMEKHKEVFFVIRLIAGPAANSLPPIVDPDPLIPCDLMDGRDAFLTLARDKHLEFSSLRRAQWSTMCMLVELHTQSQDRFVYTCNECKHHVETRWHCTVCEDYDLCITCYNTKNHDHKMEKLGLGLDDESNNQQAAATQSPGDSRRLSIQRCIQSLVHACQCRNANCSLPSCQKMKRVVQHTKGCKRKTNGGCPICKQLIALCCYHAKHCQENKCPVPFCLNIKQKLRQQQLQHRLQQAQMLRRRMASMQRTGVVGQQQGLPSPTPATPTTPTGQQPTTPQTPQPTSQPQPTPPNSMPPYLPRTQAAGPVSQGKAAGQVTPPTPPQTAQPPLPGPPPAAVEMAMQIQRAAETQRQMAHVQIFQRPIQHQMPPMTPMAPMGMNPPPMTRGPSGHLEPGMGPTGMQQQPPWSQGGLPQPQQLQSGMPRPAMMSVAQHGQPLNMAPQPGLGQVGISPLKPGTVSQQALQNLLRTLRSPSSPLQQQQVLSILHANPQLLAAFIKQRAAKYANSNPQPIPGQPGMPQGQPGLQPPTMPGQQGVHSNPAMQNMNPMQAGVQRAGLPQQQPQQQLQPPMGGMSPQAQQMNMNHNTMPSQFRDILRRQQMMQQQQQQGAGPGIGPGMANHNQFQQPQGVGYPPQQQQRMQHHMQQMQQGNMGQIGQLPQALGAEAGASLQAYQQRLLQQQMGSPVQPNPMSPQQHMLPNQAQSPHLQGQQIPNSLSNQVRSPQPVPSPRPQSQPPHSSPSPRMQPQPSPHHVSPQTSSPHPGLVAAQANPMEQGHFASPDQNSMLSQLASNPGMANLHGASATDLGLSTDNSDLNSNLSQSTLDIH

[4] = target: Nucleosome-remodeling factor subunit BPTF (Homo sapiens) (UniProt Q12830); assay: Binding affinity to human FALZ assessed as change in melting temperature at 10 uM by differential scanning fluorimetry

## CC(=O)c1cc(-c2cccc3nccn23)c2cc(N3CCOCC3)ccn12
[1]
  ΔTm: 4.5 °C
Peregrin (Homo sapiens)
  ΔTm: 1.7 °C
[2]
  Activity: Active
[3]
  ΔTm: 2 °C
[4]
  ΔTm: 1.1 °C
